# Source: patent US7879795B2, “Enhancement of tigecycline potency using efflux pump inhibitors” (Mpex Pharmaceuticals, Inc., priority 2004, dated 2011)
# Tests used:
# [1] = Tissue levels after 5 day repeated dosing in rat; format: in vivo; conditions: 20 mg/kg twice daily for 5 days, 6 hours after last dose
# Description: The decreased tissue accumulation of compound 3 vis-a-vis 1 was confirmed in a multi-dose experiment. Rats received 20 mg/kg of either compound twice daily for 5 days. Animal were sacrificed 6 hours after the last dose and levels of compounds in kidneys, liver and lung were determined. FIG. 14 depicts the measured tissue levels. Approximately 100-fold, 60-fold, and 10-fold less compound 3 accumulated in kidney, liver and lung respectively, as compared to compound 1.
# [2] = tested on: laboratory strains of P. aeruginosa; assay: Tigecycline susceptibility of laboratory strains of P. aeruginosa over-expressing or lacking efflux pumps; format: cell-based
# Description: The ability of compound 21 to increase susceptibility to tigecycline was also assessed. The tigecycline potentiating activity of compound 21 was assessed by the checkerboard assay (Antimicrobial Combinations, Antibiotics in Laboratory Medicine, ed. Victor Lorian, M.D., Fourth edition, 1996, pp 333-338, which is incorporated herein by reference in its entirety) using a broth micro-dilution method performed as recommended by the CSLI (Clinical and Laboratory Standards Institute, formerly NCCLS) guidelines (National Committee for Clinical Laboratory Standards 2003. Methods for Dilution Antimicrobial Susceptibility Tests for Bacteria That Grow Aerobically—Sixth Edition; Approved Standard. NCCLS Document M7-A6, Vol 20 No. 2). In this assay, multiple dilutions of the two drugs, compound 21 and tigecycline, were tested alone and in combination, at concentrations equal to, above and below their respective minimal inhibitory concentrations (MICs). […] The stock solution was further diluted in Mueller Hinton Broth (MHB). Stock solutions were stored at −80° C.
# The checkerboard assay was performed in microtiter plates. Tigecycline was diluted in the x axis, each column containing a single concentration of tigecycline. Compound 21 was diluted in the y axis, each row containing an equal concentration of the EPI. […] The assay was performed in MHB with a final bacterial inoculum of 5×10^5 CFU/ml (from an early-log phase culture). The microtiter plates were incubated for 20 hours at 35° C. and then read using a microtiter plate reader (Molecular Devices) at 650 nm, as well as by visual observation using a microtiter plate-reading mirror.
# [3] = tested on: 110 clinical isolates of P. aeruginosa; assay: Tigecycline susceptibility of P. aeruginosa clinical isolates with fixed concentration of compound 21; format: cell-based
# Description: To further characterize the clinical potential of tigecycline/EPI combinations, the microbiological activity of tigecycline in combination with compound 21 was investigated using clinical isolates of P. aeruginosa and other gram-negative bacteria. In several experiments, described below, the impact of a fixed concentration of compound 21 (2.5 μg/ml) on susceptibility to tigecycline was determined.
# Results from an experiment using 110 clinical isolates of P. aeruginosa are presented in FIG. 1, as the distribution of tigecycline MICs with or without the EPI potentiator.
# [4] = tested on: Strain S41, a clinical isolate; assay: microbe, parasite or virus in culture; format: cell-based, P. aeruginosa; conditions: strain S41
# [5] = tested on: P. aeruginosa strain PAM 1032; assay: Mouse model of P. aeruginosa sepsis infection (tigecycline 50% effective dose); format: in vivo
# Description: Tigecycline and compound 21 were prepared in sterile 0.9% saline. Seventy Swiss-Webster mice (Harlan laboratories) with body weights ranging from 22 to 25 grams at the start of the study were used. Upon receipt, the animals were housed 5 per cage in a room with a controlled environment and were acclimated to laboratory conditions for at least 24 hours prior to the start of dosing. Animals were provided food and water ad libitum. The health status of the animals was determined during the acclimation period and unhealthy animals were not placed on study. Each animal was identified by marking their tails with indelible ink and each cage was identified by animal, group, and study number.
# P. aeruginosa strain PAM 1032 was grown in Mueller-Hinton Broth (MHB) at 35° C. under constant aeration. After 20 hours, the inoculum was sub-cultured into fresh MHB and allowed to regrow at 35° C., under constant aeration, for 4 hours. The inoculum was adjusted to ca. 4×10^7 CFU/ml by correlation of absorbance at 600 nm with predetermined plate counts. The inoculum was then diluted 2-fold in 14% hog-gastric mucin (Sigma, St. Louis, Mo.) for a final inoculum concentration of 2×10^7 CFU/ml. […] At 0 and 2 hours following infection, tigecycline was administered by the subcutaneous route and compound 21 was administered by the intraperitoneal route. […] The susceptibility of the test strain (P. aeruginosa PAM1032, […] MexAB-OprM) to tigecycline was 4 ug/ml, the susceptibility of the test strain to tigecycline in the presence of 2.5 μg/mL of compound 21 was 0.25 μg/mL.
# [6] = tigecycline with compound 21 at fixed […], 110 clinical isolates
compound,measurement,setting,value
"NCCC[C@H](N)C(=O)N[C@H](CCc1ccccc1)C(=O)Nc1cnc2ccccc2c1 [Compound 3, 2-(S),5-Diamino-pentanoic acid [3-phenyl-1-(R)-(quinolin-3-ylcarbamoyl)-propyl]-amide]",less compound 3 accumulated as compared to compound 1,[1]; rat kidney,Approximately 100 fold
same,less compound 3 accumulated as compared to compound 1,[1]; rat liver,~60 fold
same,less compound 3 accumulated as compared to compound 1,[1]; rat lung,~10 fold
"NCCC[C@H](N)C(=O)N[C@H](Cc1ccc(C(F)(F)F)cc1)C(=O)Nc1cnc2ccccc2c1 [Compound 21, 2-(S),5-Diamino-pentanoic acid [1-(R)-(quinolin-3-ylcarbamoyl)-2-(4-trifluoromethyl-phenyl)-ethyl]amide]",effect on activity of tigecycline against strains expressing efflux pumps,[2]; in words,increases activity to tigecycline
same,concentration required to completely inhibit the efflux pumps,[2]; tigecycline checkerboard,2.5 µg/mL
same,reduction of tigecycline MIC50 and MIC90 of the population,[3]; compound 21 at […],8 fold
same,strains that responded to compound 21,[3]; individual strains tested,98%
same,"MIC50, Tigecycline + EPI",[3]; [6],0.25 µg/mL
same,"MIC90, Tigecycline + EPI",[3]; [6],1 µg/mL
same,Tigecycline MIC with Compound 21 at 5 μg/ml,[4],0.125 µg/mL
same,Mutation Frequency on Tigecycline at 4 μg/ml with Compound 21 at 10 μg/ml,[4]; 4× MIC,<1.5 × 10^−10
same,reduction of the frequency of emergence of tigecycline resistance,[4]; compound 21 at 10 μg/ml,at least three orders of magnitude
same,50% effective dose of tigecycline in combination with compound 21,"[5]; mice, tigecycline SC, compound 21 IP at 0 and 2 hours",approximately 75 mg/k
same,improvement of tigecycline 50% effective dose,[5]; with compound 21,2.5 fold
